Experimental data published in EP4722207A1, “OXOISOINDOLINYL-SUBSTITUTED TETRAHYDROPYRIMIDINEDIONE DERIVATIVE AND USE THEREOF” (Gluetacs Therapeutics (Shanghai) Co., Ltd., priority 2023, dated 2024).

Legend:
[1] = target: T1, IKZF3 (Homo sapiens, UniProt Q96SW2+Q9UKT9); experiment: Western-blot assay, substrate protein degradation in hPBMCs: IKZF3; assay type: cell-based; details: for IKZF3 substrate protein remaining %: compounds at 50 nM and 500 nM, 24 hours; for substrate protein remaining % IKZF3: 24 hours of compound treatment, 50 nM and 500 nM
T1 construct: effects of the compounds of the present disclosure on the expression of target proteins in cells; endogenous in cells; host or cells: human PBMCs (hPBMCs)

[2] = target: T2, CK1α (Homo sapiens, UniProt P48729+Q96SW2); experiment: Western-blot assay, substrate protein degradation in hPBMCs: CK1α; assay type: cell-based; details: for CK1α substrate protein remaining %: compounds at 50 nM and 500 nM, 24 hours; for substrate protein remaining % CK1α: 24 hours of compound treatment, 50 nM and 500 nM
T2 construct: effects of the compounds of the present disclosure on the expression of target proteins in cells; endogenous in cells; host or cells: human PBMCs (hPBMCs)

[3] = target: T3, GSPT1 (Homo sapiens, UniProt P15170+Q96SW2); experiment: Western-blot assay, substrate protein degradation in hPBMCs: GSPT1; assay type: cell-based; details: for GSPT1 substrate protein remaining %: compounds at 50 nM and 500 nM, 24 hours; for substrate protein remaining % GSPT1: 24 hours of compound treatment, 50 nM and 500 nM
T3 construct: effects of the compounds of the present disclosure on the expression of target proteins in cells; endogenous in cells; host or cells: human PBMCs (hPBMCs)

[4] = target: T4, WEE1 (Homo sapiens, UniProt P30291+Q96SW2); experiment: Western-blot assay, substrate protein degradation in hPBMCs: WEE1; assay type: cell-based; details: for WEE1 substrate protein remaining %: compounds at 50 nM and 500 nM, 24 hours; for substrate protein remaining % WEE1: 24 hours of compound treatment, 50 nM and 500 nM
T4 construct: effects of the compounds of the present disclosure on the expression of target proteins in cells; endogenous in cells; host or cells: human PBMCs (hPBMCs)

[5] = target: T5, IKZF2 (Homo sapiens, UniProt Q96SW2+Q9UKS7); experiment: Western-blot assay, substrate protein degradation in hPBMCs: IKZF2; assay type: cell-based; details: for IKZF2 substrate protein remaining %: compounds at 50 nM and 500 nM, 24 hours; for substrate protein remaining % IKZF2: 24 hours of compound treatment, 50 nM and 500 nM
T5 construct: effects of the compounds of the present disclosure on the expression of target proteins in cells; endogenous in cells; host or cells: human PBMCs (hPBMCs)

[6] = target: T6, IKZF1 (Homo sapiens, UniProt Q13422+Q96SW2); experiment: Western-blot assay, substrate protein degradation in hPBMCs: IKZF1; assay type: cell-based; details: for IKZF1 substrate protein remaining %: compounds at 50 nM and 500 nM, 24 hours; for substrate protein remaining % IKZF1: 24 hours of compound treatment, 50 nM and 500 nM
T6 construct: effects of the compounds of the present disclosure on the expression of target proteins in cells; endogenous in cells; host or cells: human PBMCs (hPBMCs)

[7] = target: T7, human Cereblon WT GST-tagged protein (Homo sapiens, UniProt Q96SW2); experiment: CRBN-binding affinity, CEREBLON BINDING kit (HTRF); details: for IC50: 3 hours at room temperature; for inhibition at 0.5 µM: read-out: Inhibition Rate at 0.5 µM (%); for inhibition at 2 µM: read-out: Inhibition Rate at 2 µM (%)
T7 construct: purchased CISBIO 64BDCRBNPEH
Source text: The CEREBLON BINDING kits (specification: 10,000 tests; product number: Catalog # 64BDCRBNPEH; CISBIO company) was used to determine the CRBN binding ability of the compounds to be tested through a HTRF method (homogeneous time-resolved fluorescence). The specific methods are as follows: • 1. […] Specifically, diluent #9 (1X) solution was used as the diluent, and multiple concentration gradients were set. […] Into the 96-well plate, the diluted test compounds and corresponding detection reagents were added, resulting in final test compound concentrations of 2 µM and 0.5 µM, respectively. […] Then, 2.5 µL of human Cereblon WT GST-tagged protein solution was added to each well. Finally, 5 µL of the thoroughly mixed Thalidomide-Re reagent and GST Eu antibody working solution were added to each of the aforementioned wells. […] The blank control wells were sequentially added with 2.5 µL of diluent #9 (1X) solution, 2.5 µL of binding buffer, and 5 µL of thoroughly mixed Thalidomide-Re reagent and GST Eu antibody working solution. • 4. […] OD 620 nm control is the absorbance value of the blank control well at an emission wavelength of 620 nm. […] OD 620 nm Std0 is the absorbance value of the solvent control well at an emission wavelength of 620 nm.

[8] = tested on: MM.1S; experiment: Cell viability assay (CellTiter-Meiluncell Luminescent), tumor cell proliferation, MM.1S; details: Homo sapiens, MM1.S, 96 h, read-out: inhibitory activity (IC50, nM) against tumor cells proliferation, MM.1S
[9] = tested on: H292; experiment: Cell viability assay (CellTiter-Meiluncell Luminescent), tumor cell proliferation, H292; details: Homo sapiens, NCI-H292, 96 h; for inhibition at 0.01 µM: read-out: Inhibition Rate at 10 nM (%); for inhibition at 0.5 µM: read-out: Inhibition Rate at 500 nM (%)
[10] = tested on: MDA-MB-231; experiment: Cell viability assay (CellTiter-Meiluncell Luminescent), tumor cell proliferation, MDA-MB-231; details: Homo sapiens, MDA-MB-231, 96 h; for inhibition at 0.01 µM: read-out: Inhibition Rate at 10 nM (%); for inhibition at 0.5 µM: read-out: Inhibition Rate at 500 nM (%)
Protocol: (§1) The tumor cells used herein were cultured in a cell culture medium listed in table 2 at 37°C in an incubator with 5% CO2. Prior to experimentation, all cell lines used were correctly identified by STR profiling, and tested negative for mycoplasma contamination using a mycoplasma detection kit through routine screenings.
(§2) On the following day, the test compounds of the present disclosure were subjected to serial dilution. […] Subsequently, 0.5 µL of the test compound dilution was transferred into the 96-well plate containing the cells, with each well containing 100 µL of cell culture medium. […] Into the 96-well plate, the diluted test compounds and corresponding detection reagents were added, resulting in final test compound concentrations of 500 nM and 10 nM, respectively. The experimental procedure is described below using the diluted 2 µM test compound as an example.
(§3) After the cells were treated with the compounds of the present disclosure for a specified period, the cell viability assay reagent was added to the culture medium according to the kit's instructions to determine cell viability. […] All controls were treated using the same procedure as the compounds of the present disclosure. The growth inhibition curves for the compounds of the present disclosure were plotted using Prism GraphPad software, and the IC50 values were calculated therefrom.

[11] = tested on: MV-4-11; experiment: Cell viability assay (CellTiter-Meiluncell Luminescent), tumor cell proliferation, MV-4-11; details: Homo sapiens, MV4-11, 96 h; for inhibition at 0.01 µM: read-out: Inhibition Rate at 10 nM (%); for inhibition at 0.5 µM: read-out: Inhibition Rate at 500 nM (%)
[12] = tested on: H2228; experiment: Cell viability assay (CellTiter-Meiluncell Luminescent), tumor cell proliferation, H2228; details: Homo sapiens, NCI-H2228, 96 h
Protocol: as §1, §2, §3

T2 sequence (P48729 whole entry): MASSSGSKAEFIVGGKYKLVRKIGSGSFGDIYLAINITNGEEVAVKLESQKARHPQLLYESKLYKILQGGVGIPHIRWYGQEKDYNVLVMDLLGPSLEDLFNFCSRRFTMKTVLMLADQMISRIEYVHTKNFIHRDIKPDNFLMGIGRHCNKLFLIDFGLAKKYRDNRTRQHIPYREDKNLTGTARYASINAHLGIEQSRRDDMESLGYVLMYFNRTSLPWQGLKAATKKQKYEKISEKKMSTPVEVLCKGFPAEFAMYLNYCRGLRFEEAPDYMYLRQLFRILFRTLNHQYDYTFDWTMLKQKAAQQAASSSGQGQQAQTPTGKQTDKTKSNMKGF
T2 sequence (Q96SW2 whole entry): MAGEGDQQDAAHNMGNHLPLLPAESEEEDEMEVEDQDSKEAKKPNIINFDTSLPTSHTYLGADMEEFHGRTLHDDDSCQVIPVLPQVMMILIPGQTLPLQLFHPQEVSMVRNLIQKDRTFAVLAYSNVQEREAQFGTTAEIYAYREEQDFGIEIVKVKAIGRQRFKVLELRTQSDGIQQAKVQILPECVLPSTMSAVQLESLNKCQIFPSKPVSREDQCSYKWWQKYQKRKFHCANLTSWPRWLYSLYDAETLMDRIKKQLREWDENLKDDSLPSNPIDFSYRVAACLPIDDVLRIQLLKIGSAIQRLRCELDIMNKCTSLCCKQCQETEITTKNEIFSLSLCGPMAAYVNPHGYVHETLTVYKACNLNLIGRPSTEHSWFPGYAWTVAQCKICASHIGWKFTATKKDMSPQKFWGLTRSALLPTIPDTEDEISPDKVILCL
T2 sequence (Q16531 whole entry partner): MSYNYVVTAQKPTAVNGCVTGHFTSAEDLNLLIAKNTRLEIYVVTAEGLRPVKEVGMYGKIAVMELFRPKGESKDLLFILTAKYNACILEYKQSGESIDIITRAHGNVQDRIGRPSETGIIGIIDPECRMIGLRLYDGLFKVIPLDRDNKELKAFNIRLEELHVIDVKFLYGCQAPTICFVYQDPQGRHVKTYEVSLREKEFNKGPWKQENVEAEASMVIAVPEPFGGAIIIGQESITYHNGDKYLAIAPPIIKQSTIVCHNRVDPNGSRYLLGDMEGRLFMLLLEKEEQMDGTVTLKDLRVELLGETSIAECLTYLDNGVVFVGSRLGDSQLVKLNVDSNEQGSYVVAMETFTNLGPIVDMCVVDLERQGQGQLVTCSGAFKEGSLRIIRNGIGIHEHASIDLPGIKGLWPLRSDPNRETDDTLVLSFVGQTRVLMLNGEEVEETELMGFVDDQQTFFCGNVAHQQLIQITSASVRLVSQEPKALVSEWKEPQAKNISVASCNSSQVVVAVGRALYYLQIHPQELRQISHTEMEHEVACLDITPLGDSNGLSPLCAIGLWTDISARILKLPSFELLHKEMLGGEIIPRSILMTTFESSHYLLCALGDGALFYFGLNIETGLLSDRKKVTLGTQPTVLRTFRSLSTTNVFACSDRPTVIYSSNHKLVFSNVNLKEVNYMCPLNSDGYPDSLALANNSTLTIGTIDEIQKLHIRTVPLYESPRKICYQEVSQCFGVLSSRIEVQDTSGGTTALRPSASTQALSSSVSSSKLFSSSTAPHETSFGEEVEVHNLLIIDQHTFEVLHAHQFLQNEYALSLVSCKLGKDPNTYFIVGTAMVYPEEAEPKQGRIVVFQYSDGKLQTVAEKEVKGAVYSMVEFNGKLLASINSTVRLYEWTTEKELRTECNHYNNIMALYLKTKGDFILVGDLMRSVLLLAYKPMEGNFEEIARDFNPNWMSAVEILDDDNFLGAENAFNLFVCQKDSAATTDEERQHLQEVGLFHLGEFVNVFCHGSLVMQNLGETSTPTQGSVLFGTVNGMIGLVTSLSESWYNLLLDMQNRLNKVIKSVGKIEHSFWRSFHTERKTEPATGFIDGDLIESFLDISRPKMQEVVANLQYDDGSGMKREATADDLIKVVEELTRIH
T3 sequence (P15170 whole entry): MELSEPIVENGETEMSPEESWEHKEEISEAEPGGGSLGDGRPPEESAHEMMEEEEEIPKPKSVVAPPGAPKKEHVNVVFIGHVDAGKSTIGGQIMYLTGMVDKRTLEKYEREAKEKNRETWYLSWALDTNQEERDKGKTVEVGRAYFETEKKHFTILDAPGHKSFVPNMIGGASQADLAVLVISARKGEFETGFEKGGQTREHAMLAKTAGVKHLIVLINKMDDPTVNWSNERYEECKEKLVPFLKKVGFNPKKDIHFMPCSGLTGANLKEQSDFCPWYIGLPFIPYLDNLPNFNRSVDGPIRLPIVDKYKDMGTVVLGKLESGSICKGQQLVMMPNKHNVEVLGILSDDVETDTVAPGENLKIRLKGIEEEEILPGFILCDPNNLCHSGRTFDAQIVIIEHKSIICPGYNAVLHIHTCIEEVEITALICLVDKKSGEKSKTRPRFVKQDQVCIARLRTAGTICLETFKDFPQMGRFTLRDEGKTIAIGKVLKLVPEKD
T3 sequence (Q96SW2 whole entry): as the sequence (Q96SW2 whole entry) above
T3 sequence (Q16531 whole entry partner): as the sequence (Q16531 whole entry partner) above
T1 sequence (Q9UKT9 whole entry): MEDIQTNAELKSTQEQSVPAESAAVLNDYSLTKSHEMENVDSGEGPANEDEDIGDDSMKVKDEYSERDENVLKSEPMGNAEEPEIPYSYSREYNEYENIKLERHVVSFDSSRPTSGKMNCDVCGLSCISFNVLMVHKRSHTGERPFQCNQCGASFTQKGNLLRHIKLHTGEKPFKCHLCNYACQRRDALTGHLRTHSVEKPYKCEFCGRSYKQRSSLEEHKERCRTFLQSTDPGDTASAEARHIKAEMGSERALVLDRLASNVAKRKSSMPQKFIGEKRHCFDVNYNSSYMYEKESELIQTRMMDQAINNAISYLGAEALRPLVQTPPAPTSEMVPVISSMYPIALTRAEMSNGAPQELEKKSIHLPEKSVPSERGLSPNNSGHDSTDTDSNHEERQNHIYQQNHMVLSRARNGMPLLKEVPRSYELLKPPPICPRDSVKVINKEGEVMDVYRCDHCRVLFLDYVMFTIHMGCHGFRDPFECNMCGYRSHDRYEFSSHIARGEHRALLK
T1 sequence (Q96SW2 whole entry): as the sequence (Q96SW2 whole entry) above
T1 sequence (Q16531 whole entry partner): as the sequence (Q16531 whole entry partner) above
T5 sequence (Q9UKS7 whole entry): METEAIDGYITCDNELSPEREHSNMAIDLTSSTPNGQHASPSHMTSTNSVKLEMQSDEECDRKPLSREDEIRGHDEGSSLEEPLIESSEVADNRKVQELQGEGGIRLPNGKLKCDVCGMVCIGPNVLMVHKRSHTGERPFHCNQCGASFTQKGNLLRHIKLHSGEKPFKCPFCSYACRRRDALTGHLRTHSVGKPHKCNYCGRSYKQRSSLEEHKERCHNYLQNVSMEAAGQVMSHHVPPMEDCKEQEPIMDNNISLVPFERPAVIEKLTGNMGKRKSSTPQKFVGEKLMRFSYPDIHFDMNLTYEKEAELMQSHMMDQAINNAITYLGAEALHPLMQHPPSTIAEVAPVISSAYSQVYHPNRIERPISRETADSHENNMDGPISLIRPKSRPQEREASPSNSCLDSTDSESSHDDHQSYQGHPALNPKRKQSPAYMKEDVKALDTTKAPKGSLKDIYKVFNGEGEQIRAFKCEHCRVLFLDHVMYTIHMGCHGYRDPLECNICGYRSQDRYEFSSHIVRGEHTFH
T5 sequence (Q96SW2 whole entry): as the sequence (Q96SW2 whole entry) above
T5 sequence (Q16531 whole entry partner): as the sequence (Q16531 whole entry partner) above
T4 sequence (P30291 whole entry): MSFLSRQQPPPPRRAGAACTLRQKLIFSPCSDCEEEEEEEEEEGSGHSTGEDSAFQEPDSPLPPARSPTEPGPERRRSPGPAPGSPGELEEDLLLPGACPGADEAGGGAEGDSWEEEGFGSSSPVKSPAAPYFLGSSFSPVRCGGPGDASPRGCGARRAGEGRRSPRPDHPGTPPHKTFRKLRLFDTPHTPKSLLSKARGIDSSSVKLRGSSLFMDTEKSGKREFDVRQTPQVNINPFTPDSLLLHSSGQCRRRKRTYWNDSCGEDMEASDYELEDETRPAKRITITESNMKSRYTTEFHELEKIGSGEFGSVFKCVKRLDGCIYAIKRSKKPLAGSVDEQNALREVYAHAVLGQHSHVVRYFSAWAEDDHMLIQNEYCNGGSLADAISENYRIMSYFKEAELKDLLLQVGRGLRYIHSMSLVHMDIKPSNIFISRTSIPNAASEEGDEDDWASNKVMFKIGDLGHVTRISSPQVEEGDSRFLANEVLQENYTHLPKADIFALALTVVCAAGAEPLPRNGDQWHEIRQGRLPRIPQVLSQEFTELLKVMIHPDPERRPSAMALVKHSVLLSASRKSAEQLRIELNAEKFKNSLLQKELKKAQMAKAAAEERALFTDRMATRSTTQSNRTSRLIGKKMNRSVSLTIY
T4 sequence (Q96SW2 whole entry): as the sequence (Q96SW2 whole entry) above
T4 sequence (Q16531 whole entry partner): as the sequence (Q16531 whole entry partner) above
T7 sequence (Q96SW2 whole entry): as the sequence (Q96SW2 whole entry) above

| SMILES | IC50 [7] [nM] | substrate protein remaining % IKZF3 [1] | substrate protein remaining % CK1α [2] | substrate protein remaining % GSPT1 [3] | substrate protein remaining % WEE1 [4] | substrate protein remaining % IKZF2 [5] | substrate protein remaining % IKZF1 [6] | inhibition at 0.01 µM [9] [%] | inhibition at 0.5 µM [9] [%] | inhibition at 0.01 µM [11] [%] | inhibition at 0.5 µM [11] [%] | inhibition at 0.5 µM [7] [%] | inhibition at 2 µM [7] [%] | further results |
| --- | --- | --- | --- | --- | --- | --- | --- | --- | --- | --- | --- | --- | --- | --- |
| O=C1CCN(N2Cc3cc(CN4CCN(c5cccs5)CC4)ccc3C2=O)C(=O)N1 [GT-05073, 1-(1-oxo-5-((4-(thiophen-2-yl)piperazin-1-yl)methyl)isoindolin-2-yl)dihydropyrimidine-2,4(1H,3H)-dione] | 1000 to 1500 |  |  |  |  |  |  |  |  |  |  |  |  | IKZF3 substrate protein remaining % [1]: A ("A" is defined as 0% ≤ substrate protein remaining % ≤ 80%); CK1α substrate protein remaining % [2]: B ("B" is defined as 80%< substrate protein remaining %≤ 100%); GSPT1 substrate protein remaining % [3]: B ("B" is defined as 80%< substrate protein remaining %≤ 100%); WEE1 substrate protein remaining % [4]: B ("B" is defined as 80%< substrate protein remaining %≤ 100%); IKZF2 substrate protein remaining % [5]: B ("B" is defined as 80%< substrate protein remaining %≤ 100%); IKZF1 substrate protein remaining % [6]: B ("B" is defined as 80%< substrate protein remaining %≤ 100%) |
| N#Cc1ccc(N2CCN(Cc3ccc(COc4cccc5c4CN(N4CCC(=O)NC4=O)C5=O)cc3)CC2)c(F)c1 [GT-06132, 4-(4-(4-(((2-(2,4-dioxotetrahydropyrimidin-1(2H)-yl)-1-oxoisoindolin-4-yl)oxy)methyl)benzyl)piperazin-1-yl)-3-fluorobenzonitrile] | 1000 to 1500 |  |  |  |  |  |  |  |  |  |  |  |  | IC50 [8]: 100 to 300 nM |
| O=C1CCN(N2Cc3cc(CN4CC5CCC4CN5C(c4ccccc4)c4ccccc4)ccc3C2=O)C(=O)N1 (stereo not shown) [GT-06450, 1-(5-((5-benzhydryl-2,5-diazabicyclo[2.2.2]octan-2-yl)methyl)-1-oxoisoindolin-2-yl)dihydropyrimidine-2,4(1H,3H)-dione] | 1500 to 1900 |  |  |  |  |  |  |  |  |  |  |  |  | IKZF3 substrate protein remaining % [1]: A ("A" is defined as 0% ≤ substrate protein remaining % ≤ 80%); CK1α substrate protein remaining % [2]: B ("B" is defined as 80%< substrate protein remaining %≤ 100%); GSPT1 substrate protein remaining % [3]: A ("A" is defined as 0% ≤ substrate protein remaining % ≤ 80%); WEE1 substrate protein remaining % [4]: A ("A" is defined as 0% ≤ substrate protein remaining % ≤ 80%); IKZF2 substrate protein remaining % [5]: A ("A" is defined as 0% ≤ substrate protein remaining % ≤ 80%); IKZF1 substrate protein remaining % [6]: B ("B" is defined as 80%< substrate protein remaining %≤ 100%) |
| O=C1CCN(N2Cc3cc(CN4CC=C(c5c[nH]c6cc(F)ccc56)CC4)ccc3C2=O)C(=O)N1 [GT-07574, 1-(5-((4-(6-fluoro-1H-indol-3-yl)-3,6-dihydropyridin-1(2H)-yl)methyl)-1-oxoisoindolin-2-yl)dihydropyrimidine-2,4(1H,3H)-dione] | 1500 to 1900 | B (80%< substrate protein remaining %≤ 100%) | A (0% ≤ substrate protein remaining % ≤ 80%) | A (0% ≤ substrate protein remaining % ≤ 80%) | A (0% ≤ substrate protein remaining % ≤ 80%) | A (0% ≤ substrate protein remaining % ≤ 80%) | B (80%< substrate protein remaining %≤ 100%) |  |  |  |  |  |  |  |
| Cc1nc(N2CCN(Cc3ccc4c(c3)CN(N3CCC(=O)NC3=O)C4=O)CC2)c2c(-c3ccccc3)csc2n1 [GT-08066, 1-(5-((4-(2-methyl-5-phenylthieno[2,3-d]pyrimidin-4-yl)piperazin-1-yl)methyl)-1-oxoisoindolin-2-yl)dihydropyrimidine-2,4(1H,3H)-dione] |  | B (80%< substrate protein remaining %≤ 100%) | A (0% ≤ substrate protein remaining % ≤ 80%) | B (80%< substrate protein remaining %≤ 100%) | B (80%< substrate protein remaining %≤ 100%) | A (0% ≤ substrate protein remaining % ≤ 80%) | B (80%< substrate protein remaining %≤ 100%) | 20 to 40 | 20 to 40 | 18 to 25 | 10 to 18 | 20 to 30 | 60 to 80 | inhibition at 0.01 µM [10]: 15 to 18%; inhibition at 0.5 µM [10]: 15 to 18% |
| Cc1nc(N2CCN(Cc3ccc4c(c3)CN(N3CCC(=O)NC3=O)C4=O)CC2)c2c3c(sc2n1)CCC3 [GT-08080, 1-(5-((4-(2-methyl-6,7-dihydro-5H-cyclopenta[4,5]thieno[2,3-d]pyrimidin-4-yl)piperazin-1-yl)methyl)-1-oxoisoindolin-2-yl)dihydropyrimidine-2,4(1H,3H)-dione] |  | B (80%< substrate protein remaining %≤ 100%) | A (0% ≤ substrate protein remaining % ≤ 80%) | A (0% ≤ substrate protein remaining % ≤ 80%) | A (0% ≤ substrate protein remaining % ≤ 80%) | B (80%< substrate protein remaining %≤ 100%) | B (80%< substrate protein remaining %≤ 100%) | 40 to 60 | 20 to 40 |  |  | 20 to 30 | 53 to 60 | inhibition at 0.01 µM [10]: 18 to 25%; inhibition at 0.5 µM [10]: 15 to 18%; inhibition at 0.01 µM ([12]; read-out: Inhibition Rate at 10 nM (%)): 30 to 40%; inhibition at 0.5 µM ([12]; read-out: Inhibition Rate at 500 nM (%)): 20 to 25% |
| Cc1nc(C2CCN(Cc3ccc4c(c3)CN(N3CCC(=O)NC3=O)C4=O)CC2)c2c(-c3ccccc3)csc2n1 [GT-08087, 1-(5-((4-(2-methyl-5-phenylthieno[2,3-d]pyrimidin-4-yl)piperidin-1-yl)methyl)-1-oxoisoindolin-2-yl)dihydropyrimidine-2,4(1H,3H)-dione] |  |  |  |  |  |  |  |  |  | 30 to 40 | 30 to 40 | 20 to 30 | 60 to 80 |  |
| Cc1nc(C2=CCN(Cc3ccc4c(c3)CN(N3CCC(=O)NC3=O)C4=O)CC2)c2c(-c3ccccc3)csc2n1 [GT-08176, 1-(5-((4-(2-methyl-5-phenylthieno[2,3-d]pyrimidin-4-yl)-3,6-dihydropyridin-1(2H)-yl)methyl)-1-oxoisoindolin-2-yl)dihydropyrimidine-2,4(1H,3H)-dione] |  |  |  |  |  |  |  | 15 to 20 | 20 to 40 | 60 to 80 | 30 to 40 | 30 to 40 | 60 to 80 |  |
| Cc1nc(C2=CCN(Cc3ccc4c(c3)CN(N3CCC(=O)NC3=O)C4=O)CC2)c2c3c(sc2n1)CCCC3 [GT-08177, 1-(5-((4-(2-methyl-5,6,7,8-tetrahydrobenzo[4,5]thieno[2,3-d]pyrimidin-4-yl)-3,6-dihydropyridin-1(2H)-yl)methyl)-1-oxoisoindolin-2-yl)dihydropyrimidine-2,4(1H,3H)-dione] |  |  |  |  |  |  |  | 10 to 15 | 10 to 15 | 40 to 60 | 30 to 40 | 20 to 30 | 53 to 60 |  |
